Measured values as given in patent publication US10000488B2, “Heterocyclic compound” (TAKEDA PHARMACEUTICAL COMPANY LIMITED, priority 2014, dated 2018).

Tests used:
RORγt [1] = target: T1, RORγt (Homo sapiens, UniProt P51449); assay: Jurkat reporter test (human IL-17 ROR response element luciferase reporter, RORγt vector); assay type: cell-based; conditions: Jurkat cells; for inhibition at 3 µM: test compound 3 μM, read-out: luminescence level inhibitory rate (%) at test compound 3 μM
T1 sequence (P51449 1-497 isoform P51449-2): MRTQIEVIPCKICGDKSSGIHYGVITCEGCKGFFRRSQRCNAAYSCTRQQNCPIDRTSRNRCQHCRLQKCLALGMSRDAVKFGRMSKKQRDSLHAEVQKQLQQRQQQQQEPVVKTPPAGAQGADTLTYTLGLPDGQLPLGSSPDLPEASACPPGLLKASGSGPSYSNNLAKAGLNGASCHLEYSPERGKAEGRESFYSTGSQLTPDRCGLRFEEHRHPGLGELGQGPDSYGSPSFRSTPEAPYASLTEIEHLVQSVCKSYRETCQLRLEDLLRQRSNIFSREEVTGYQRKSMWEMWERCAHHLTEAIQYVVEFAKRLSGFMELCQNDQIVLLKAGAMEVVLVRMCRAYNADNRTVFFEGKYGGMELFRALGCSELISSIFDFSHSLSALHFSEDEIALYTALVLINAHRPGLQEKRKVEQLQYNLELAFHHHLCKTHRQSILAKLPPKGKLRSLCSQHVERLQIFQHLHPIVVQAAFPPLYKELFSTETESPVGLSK
Summary of the method: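 Jurkat cells were electroporated (1350 V, 10 ms, 3 pulses) with the reporter constructs and plated in RPMI with 10% lipid-reduced FCS, 10 mM HEPES pH 7.5 and 5 μM lovastatin. After overnight culture with compound, luciferase activity was measured by luminescence following a 10 min room-temperature incubation with Bright-Glo.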

RORγt [2] = target: T1, RORγt; assay: RORγt binding test using fluorescent-labeled synthetic ligand (TR-FRET); conditions: for inhibition at 1 µM: test compound 1 μM, read-out: binding inhibitory rate (%) of fluorescent-labeled synthetic ligand to RORγt at test compound 1 μM
Summary of the method: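 Compound displacement of a fluorescent-labeled synthetic ligand from His-tagged RORγt was read by TR-FRET with a terbium anti-His antibody. Buffer was 20 mM Tris-HCl pH 7.5, 100 mM NaCl, 1 mM DTT and 0.1% BSA, with stocks of 240 nM protein, 12 μM ligand and 8 nM antibody (pre-mix, not final). Incubations were 20 min plus 20 min at room temperature, with excitation at 320 nm, emission at 520 nm and a 100 μs delay.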

RORγt [3] = target: T1, RORγt; assay: Cofactor recruitment test (Alpha Screen, biotinylated SRC-1 peptide); assay type: biochemical; conditions: for inhibition at 1 µM: read-out: signal value inhibitory rate (%) at test compound 1 μM
Procedure: Cofactor Recruitment Test
Cofactor recruitment test was performed by Alpha Screen (Histidine Detection Kit, PerkinElmer) method. First, a test compound was diluted with an assay buffer (50 mM Tris-HCl (pH 7.5), 50 mM KCl, 1 mM DTT, 0.1% BSA) and added to a 384 well plate by 5 μL. […] The mixture was stood in a dark place for 1 hr, and the signal value was measured by Envision (PerkinElmer).

## CC(C)n1c(=O)n(CC2CC2)c(=O)c2cc(NC(=O)N3CCCC(NC(=O)c4ccc(C#N)nc4)C3)ccc21 (stereo not drawn) [Example 157, 6-cyano-N-(1-((3-(cyclopropylmethyl)-1-isopropyl-2,4-dioxo-1,2,3,4-tetrahydroquinazolin-6-yl)carbamoyl)piperidin-3-yl) nicotinamide]
RORγt [1]
  inhibition at 3 µM: 102%
RORγt [2]
  inhibition at 1 µM: 102%
RORγt [3]
  inhibition at 1 µM: 109%

## CC(C)n1c(=O)n(CC2CC2(F)F)c(=O)c2cc(NC(=O)N3CCOC(C(=O)Nc4ccc(C#N)c(Cl)c4)C3)c(F)cc21 (single isomer, unassigned) [Example 368, (2R)—N^2-(3-chloro-4-cyanophenyl)-N^4-(3-(((1R or 1S)-2,2-difluorocyclopropyl)methyl)-7-fluoro-1-isopropyl-2,4-dioxo-1,2,3,4-tetrahydroquinazolin-6-yl)morpholine-2,4-dicarboxamide (one stereoisomer, quinazolinedione: derived from tR2)]
RORγt [1]
  luminescence level inhibitory rate (%) at test compound 3 μM: 108%
RORγt [2]
  binding inhibitory rate (%) of fluorescent-labeled synthetic ligand to RORγt at test compound 1 μM: 102%
RORγt [3]; test compound 1 μM
  signal value inhibitory rate (%) at test compound 1 μM: 105%

## CC(C)n1c(=O)n(CC2CC2)c(=O)c2cc(NC(=O)N3CCCC(NC(=O)c4ccc(C#N)c(Cl)c4)C3)ccc21 (stereo not drawn) [Example 88, 3-((3-chloro-4-cyanobenzoyl)amino)-N-(3-(cyclopropylmethyl)-1-isopropyl-2,4-dioxo-1,2,3,4-tetrahydroquinazolin-6-yl)piperidine-1-carboxamide]
RORγt [1]
  inhibition at 3 µM: 102%
RORγt [2]
  inhibition at 1 µM: 102%
RORγt [3]
  inhibition at 1 µM: 102%

## COC(=O)c1ccc(C(=O)NC2CCCN(C(=O)Nc3ccc4c(c3)c(=O)n(CC3CC3)c(=O)n4C(C)C)C2)cc1 (stereo not drawn) [Example 132, methyl 4-((1-((3-(cyclopropylmethyl)-1-isopropyl-2,4-dioxo-1,2,3,4-tetrahydroquinazolin-6-yl)carbamoyl)piperidin-3-yl)carbamoyl)benzoate]
RORγt [1]
  inhibition at 3 µM: 100%
RORγt [2]
  inhibition at 1 µM: 102%
RORγt [3]
  inhibition at 1 µM: 112%

## CC(C)n1c(=O)n(CC2CC2(F)F)c(=O)c2cc(NC(=O)N3CCCC(n4cnc5cc(C#N)ccc5c4=O)C3)c(F)cc21 (single isomer, unassigned) [Example 367, (3R)-3-(7-cyano-4-oxoquinazoline-3(4H)-yl)-N-(3-(((1R or 1S)-2,2-difluorocyclopropyl)methyl)-7-fluoro-1-isopropyl-2,4-dioxo-1,2,3,4-tetrahydroquinazolin-6-yl)piperidine-1-carboxamide (one stereoisomer, quinazolinedione: derived from tR1)]
RORγt [1]
  inhibition at 3 µM: 110%
RORγt [2]
  inhibition at 1 µM: 102%
RORγt [3]
  inhibition at 1 µM: 105%

## CC(C)n1c(=O)n(CC2CC2)c(=O)c2cc(NC(=O)N3CCCC(NC(=O)c4ccc(C#N)cc4)C3)ccc21 (stereo not drawn) [Example 180, 3-((4-cyanobenzoyl)amino)-N-(3-(cyclopropylmethyl)-1-isopropyl-2,4-dioxo-1,2,3,4-tetrahydroquinazolin-6-yl)piperidine-1-carboxamide]
RORγt [1]
  inhibition at 3 µM: 101%
RORγt [2]
  inhibition at 1 µM: 102%
RORγt [3]
  inhibition at 1 µM: 111%

## CC(C)n1c(=O)n(CC2CC(F)(F)C2)c(=O)c2cc(NC(=O)N3CCO[C@@H](C(=O)Nc4ccc(C#N)c(Cl)c4)C3)c(F)cc21 [Example 350, (2R)—N^2-(3-chloro-4-cyanophenyl)-N^4-(3-((3,3-difluorocyclobutyl)methyl)-7-fluoro-1-isopropyl-2,4-dioxo-1,2,3,4-tetrahydroquinazolin-6-yl)morpholine-2,4-dicarboxamide]
RORγt [1]
  inhibition at 3 µM: 107%
RORγt [2]
  inhibition at 1 µM: 102%
RORγt [3]
  inhibition at 1 µM: 108%

## COc1ccc(C(=O)N[C@@H]2CCCN(C(=O)Nc3ccc4c(c3)c(=O)n(CC3CC3)c(=O)n4C(C)C)C2)cc1 [Example 244, (3R)-N-(3-(cyclopropylmethyl)-1-isopropyl-2,4-dioxo-1,2,3,4-tetrahydroquinazolin-6-yl)-3-((4-methoxybenzoyl)amino)piperidine-1-carboxamide]
RORγt [1]
  inhibition at 3 µM: 104%
RORγt [2]
  inhibition at 1 µM: 102%
RORγt [3]
  inhibition at 1 µM: 105%

## CC(C)n1c(=O)n(CC2CC2)c(=O)c2cc(NC(=O)N3CCC[C@@H](NC(=O)c4ccc(Cl)cc4)C3)ccc21 [Example 247, (3R)-3-((4-chlorobenzoyl)amino)-N-(3-(cyclopropylmethyl)-1-isopropyl-2,4-dioxo-1,2,3,4-tetrahydroquinazolin-6-yl)piperidine-1-carboxamide]
RORγt [1]
  inhibition at 3 µM: 103%
RORγt [2]
  inhibition at 1 µM: 102%
RORγt [3]
  inhibition at 1 µM: 107%

## CC(C)n1c(=O)n(CC2CC2(F)F)c(=O)c2cc(NC(=O)N3CCOC(C(=O)Nc4cc(Cl)c(C#N)cc4F)C3)c(F)cc21 (mixture of isomers) [Example 348, (2R)—N^2-(5-chloro-4-cyano-2-fluorophenyl)-N^4-(3-((2,2-difluorocyclopropyl)methyl)-7-fluoro-1-isopropyl-2,4-dioxo-1,2,3,4-tetrahydroquinazolin-6-yl)morpholine-2,4-dicarboxamide (mixture of two stereoisomers)]
RORγt [1]
  inhibition at 3 µM: 107%
RORγt [2]
  inhibition at 1 µM: 102%
RORγt [3]
  inhibition at 1 µM: 107%

## CC(C)n1c(=O)n(CC2CC2)c(=O)c2cc(NC(=O)N3CCO[C@@H](C(=O)Nc4ccc(C#N)c(F)c4)C3)ccc21 [Example 102, (2R)-N^2-(4-cyano-3-fluorophenyl)-N^4-(3-(cyclopropylmethyl)-1-isopropyl-2,4-dioxo-1,2,3,4-tetrahydroquinazolin-6-yl)morpholine-2,4-dicarboxamide]
RORγt [1]
  inhibition at 3 µM: 104%
RORγt [2]
  inhibition at 1 µM: 101%
RORγt [3]
  inhibition at 1 µM: 102%

## Cc1ccc(C(=O)N[C@@H]2CCCN(C(=O)Nc3ccc4c(c3)c(=O)n(CC3CC3)c(=O)n4C(C)C)C2)s1 [Example 242, (3R)-N-(3-(cyclopropylmethyl)-1-isopropyl-2,4-dioxo-1,2,3,4-tetrahydroquinazolin-6-yl)-3-(((5-methyl-2-thienyl)carbonyl)amino)piperidine-1-carboxamide]
RORγt [1]
  inhibition at 3 µM: 103%
RORγt [2]
  inhibition at 1 µM: 102%
RORγt [3]
  inhibition at 1 µM: 105%

## CC(C)n1c(=O)n(CC2CC(F)(F)C2)c(=O)c2cc(NC(=O)N3CCC[C@@H](n4cnc5cc(C#N)ccc5c4=O)C3)c(F)cc21 [Example 363, (3R)-3-(7-cyano-4-oxoquinazoline-3(4H)-yl)-N-(3-((3,3-difluorocyclobutyl)methyl)-7-fluoro-1-isopropyl-2,4-dioxo-1,2,3,4-tetrahydroquinazolin-6-yl)piperidine-1-carboxamide]
RORγt [1]
  inhibition at 3 µM: 107%
RORγt [2]
  inhibition at 1 µM: 102%
RORγt [3]
  inhibition at 1 µM: 106%

## CC(C)n1c(=O)n(CC2CC2)c(=O)c2cc(NC(=O)N3CCO[C@@H](C(=O)Nc4cnc(C#N)c(Cl)c4)C3)ccc21 [Example 122, (2R)-N^2-(5-chloro-6-cyanopyridin-3-yl)-N^4-(3-(cyclopropylmethyl)-1-isopropyl-2,4-dioxo-1,2,3,4-tetrahydroquinazolin-6-yl)morpholine-2,4-dicarboxamide]
RORγt [1]
  inhibition at 3 µM: 103%
RORγt [2]
  inhibition at 1 µM: 101%
RORγt [3]
  inhibition at 1 µM: 112%

## CC(C)n1c(=O)n(CC2CC2(F)F)c(=O)c2cc(NC(=O)N3CCOC(C(=O)Nc4ccc(C#N)c(Cl)c4)C3)c(F)cc21 (single isomer, unassigned) [Example 366, (2R)—N^2-(3-chloro-4-cyanophenyl)-N^4-(3-(((1R or 1S)-2,2-difluorocyclopropyl)methyl)-7-fluoro-1-isopropyl-2,4-dioxo-1,2,3,4-tetrahydroquinazolin-6-yl)morpholine-2,4-dicarboxamide (one stereoisomer, quinazolinedione: derived from tR1)]
RORγt [1]
  inhibition at 3 µM: 108%
RORγt [2]
  inhibition at 1 µM: 102%
RORγt [3]
  inhibition at 1 µM: 105%

## CC(C)n1c(=O)n(CC2CC2)c(=O)c2cc(NC(=O)N3CCO[C@@H](C(=O)Nc4cc(F)c(C#N)cc4F)C3)ccc21 [Example 168, (2R)-N^2-(4-cyano-2,5-difluorophenyl)-N^4-(3-(cyclopropylmethyl)-1-isopropyl-2,4-dioxo-1,2,3,4-tetrahydroquinazolin-6-yl)morpholine-2,4-dicarboxamide]
RORγt [1]
  inhibition at 3 µM: 102%
RORγt [2]
  inhibition at 1 µM: 102%
RORγt [3]
  inhibition at 1 µM: 108%
